This note sets out measurements from PMC12693135, “Ocular Toxicity and Mechanistic Investigation for Berberine and Its Metabolite Berberrubine on Zebrafish” (Molecules, 2025).

Broadly, the IC50 is the midpoint of a concentration-inhibition curve.

The test system of data set [1] is human corneal epithelial (HCE-T) cell line. Kind of data set: MTT cytotoxicity assay on HCE-T cells. It is filed as cell-based. As for the experimental part:
(§1) The human corneal epithelial cell line HCE-T (Cellosaurus accession: CVCL_1272, RRID: CVCL_1272, RCB: RCB2280) was purchased from Procell Life Science and Technology Co., Ltd. (Wuhan, China). […] were cultured in high-glucose Dulbecco’s Modified Eagle Medium (DMEM), which was purchased from Procell Life Science and Technology Co., Ltd. (Wuhan, China). The high-glucose DMEM was DMEM basic medium supplemented with 15% fetal bovine serum (Procell), 1% penicillin/streptomycin (Procell), 5 μg/mL insulin, and 10 ng/mL human epidermal growth factor (Procell).
(§2) HCE-T cells were seeded in 96-well plates (8 × 10^3 cells/well, 100 μL medium) and cultured overnight at 37 °C, 5% CO2 for adhesion. BBR or its metabolites at various concentrations (BBR and M3 at the concentrations of 31.25, 62.5, 125, 250 and 500 µM, M1 and M4 at the concentrations of 25, 50, 100, 200 and 400 µM) in 0.5% DMSO were added and incubated for 24 h, with 0.5% DMSO in culture medium as the vehicle control. Subsequently, 20 μL MTT (5 mg/mL) was added to each well and the cells were cultured at 37 °C for 4 h. Then, the culture medium was removed, and 150 μL DMSO was added to dissolve formazan crystals and the absorbance at 570 nm was measured on a Synergy H1 multifunctional microplate reader (Biotek, Winooski, VT, USA). The IC50 values of test compounds were calculated by Graphpad Prism 8.5 (GraphPad Software Co., San Diego, CA, USA).

The nature of data set [2]: MTT cytotoxicity assay on HCE-T cells. Type of data set: cell-based, human. To be noted: human, HCE-T human corneal epithelial cells; HCE-T cells, 24 h incubation. Here is the method:
as §1, §2

For `COc1ccc2cc3[n+](cc2c1OC)CCc1cc(O)c(O)cc1-3` [M3, demethyleneberberine], the 50% inhibitory concentration (IC50) in data set [1] was greater than 400 µM.

For the molecule `COc1cc2c(cc1O)CC[n+]1cc3c(OC)c(OC)ccc3cc1-2` [M4, jatrorrhizine], the concentration for half-maximal inhibition (IC50) at 24 h in data set [2] was greater than 400 µM.
